Experimental data as given in patent US9796711B2, “Substituted pyrazolo[3,4-b]pyridin-6-carboxylic acids and method of use” (AbbVie S.àr.l., priority 2015, dated 2017).

How the values were obtained:
CFTR ΔF508 [1] = molecular target: T1, CFTR ΔF508 (Homo sapiens, UniProt P13569, DEL508-508); assay: Acute TECC assay on primary bronchial epithelial cells, with and without co-corrector; assay type: cell-based; details: normalized to DMSO and positive control; for % Activity at 3 μM with co-corrector (Ieq): bronchial epithelial cells from CF patients homozygous for CFTR ΔF508, 3 μM test compound for 24 h; for % Activity at 10 μM (Ieq*): bronchial epithelial cells from CF patients homozygous for CFTR ΔF508, 10 μM test compound for 24 h, without co-corrector, Ieq based on the maximum current
T1 construct: bronchial epithelial cells isolated from CF patients homozygous for the CFTR ΔF508 mutation; McGill University; Asterand; University of North Carolina hAEC-CF; host or cells: primary human bronchial epithelial cells from CF patients homozygous for ΔF508
Protocol: Primary Bronchial Epithelial Cells Protocol
The TECC (Tranepithelial Clamp Circuit, EP-design) assay measures the functionality of the cystic fibrosis Transmembrane Conductance regulator (CFTR) by measuring the short circuit current (Isc) generated over the basolateral and apical membrane of lung epithelial cells. In TECC the transepithelial potential PD and transepithelial resistance (Rt)) are measured in an open circuit and transformed to Ieq using Ohm's law. 24 Wells can be measured simultaneously allowing a higher throughput compared to Ussing chambers.
For this purpose, bronchial epithelial cells isolated from CF patients homozygous for the CFTR ΔF508 mutation (hAEC-CF, Epithelix, Geneva, Switzerland; McGill University, Montreal, Qc; Asterand, Detroit, Mich.; University of North Carolina, Chapel Hill, N.C.) are plated on type IV collagen-coated Transwell® supports (Costar). Human airway epithelia are generated by provision of an air-liquid interface for 21 days to form well-differentiated polarized cultures that resemble in vivo pseudo-stratified ciliated epithelium (Fulcher, M. L., Gabriel, S., Burns, K. A., Yankaskas, J. R., Randell, S. H., 2005. Well-differentiated human airway epithelial cell cultures. Methods Mol. Med. 107, 183-206). The differentiated cells are treated with test corrector compound(s) (corrector alone or in combination with co-corrector, 4-[(2R,4R)-4-({[1-(2,2-difluoro-1,3-benzodioxol-5-yl)cyclopropyl]carbonyl}amino)-7-methoxy-3,4-dihydro-2H-chromen-2-yl]benzoic acid (G924806/A-1618261) (“acute”) or test corrector compounds, co-corrector and potentiator, N-(3-carbamoyl-5,5,7,7-tetramethyl-4,7-dihydro-5H-thieno[2,3-c]pyran-2-yl)-1H-pyrazole-5-carboxamide GLPG1837, (“chronic”) for 24 hours basolaterally to allow sufficient expression of properly folded CFTR protein on the membrane. All compound plates contained negative controls (DMSO) and positive controls (0.15 μM, 4-[(2R,4R)-4-({[1-(2,2-difluoro-1,3-benzodioxol-5-yl)cyclopropyl]carbonyl}amino)-7-(difluoromethoxy)-3,4-dihydro-2H-chromen-2-yl]benzoic acid).
For electrophysiological recording of the “acute” experiments, the human airway epithelia are mounted in the TECC heating plate and kept at 37° C. The epithelia are bathed in a NaCl-Ringer solution (120 mM NaCl, 25 mM NaHCO3, 1.2 mM CaCl2, 1.2 mM MgCl2, 0.8 mM KH2PO4, 0.8 mM K2HPO4, pH 7.4, 5 mM glucose) on both the basolateral and apical sides. Apical amiloride is used to inhibit the endogenous epithelial sodium channel (ENaC) currents while forskolin is applied on both apical and basolateral side to stimulate CFTR. CFTR activity is measured by addition of forskolin followed by addition of a potentiator, N-(3-carbamoyl-5,5,7,7-tetramethyl-4,7-dihydro-5H-thieno[2,3-c]pyran-2-yl)-1H-pyrazole-5-carboxamide, on both sides. Measurements are done during a 20 minute timeframe with recordings every 2 minutes. The increase in Ieq is used as a measure for the increased CFTR activity, EC50 values can be generated by measuring impact of different concentrations of compound on Ieq on primary cells, for this purpose each transwell is treated with a different compound concentration for 24 hours. Inhibitor-172, an inhibitor specific for CFTR, is used to test the specificity of the tested compounds. Raw data were normalized to percentage activity values using the equation: 100×(Sample−Negative control)/(Positive control−Negative Control).

CFTR ΔF508 [2] = molecular target: T1, CFTR ΔF508; assay: Chronic TECC assay on primary bronchial epithelial cells (corrector, co-corrector and potentiator); assay type: cell-based; details: chronic TECC, with co-corrector and potentiator, 24 hours; for % Activity at 1 μM (Ieq*) / EC50: Ieq = calculations based on the maximum current; for EC50: read-out: EC50 (nM) (Ieq)
Outline: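 Differentiated airway epithelia from CFTR ΔF508-homozygous CF patients (21 days air-liquid interface) were treated basolaterally for 24 h with corrector plus co-corrector and potentiator; compounds were re-added before TECC recording at 37 °C in NaCl-Ringer, pH 7.4. Forskolin-stimulated Ieq increase after apical amiloride, normalized to DMSO and positive controls; EC50 from concentration series.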

T1 sequence (P13569 with tags, fused parts or gaps DEL508-508): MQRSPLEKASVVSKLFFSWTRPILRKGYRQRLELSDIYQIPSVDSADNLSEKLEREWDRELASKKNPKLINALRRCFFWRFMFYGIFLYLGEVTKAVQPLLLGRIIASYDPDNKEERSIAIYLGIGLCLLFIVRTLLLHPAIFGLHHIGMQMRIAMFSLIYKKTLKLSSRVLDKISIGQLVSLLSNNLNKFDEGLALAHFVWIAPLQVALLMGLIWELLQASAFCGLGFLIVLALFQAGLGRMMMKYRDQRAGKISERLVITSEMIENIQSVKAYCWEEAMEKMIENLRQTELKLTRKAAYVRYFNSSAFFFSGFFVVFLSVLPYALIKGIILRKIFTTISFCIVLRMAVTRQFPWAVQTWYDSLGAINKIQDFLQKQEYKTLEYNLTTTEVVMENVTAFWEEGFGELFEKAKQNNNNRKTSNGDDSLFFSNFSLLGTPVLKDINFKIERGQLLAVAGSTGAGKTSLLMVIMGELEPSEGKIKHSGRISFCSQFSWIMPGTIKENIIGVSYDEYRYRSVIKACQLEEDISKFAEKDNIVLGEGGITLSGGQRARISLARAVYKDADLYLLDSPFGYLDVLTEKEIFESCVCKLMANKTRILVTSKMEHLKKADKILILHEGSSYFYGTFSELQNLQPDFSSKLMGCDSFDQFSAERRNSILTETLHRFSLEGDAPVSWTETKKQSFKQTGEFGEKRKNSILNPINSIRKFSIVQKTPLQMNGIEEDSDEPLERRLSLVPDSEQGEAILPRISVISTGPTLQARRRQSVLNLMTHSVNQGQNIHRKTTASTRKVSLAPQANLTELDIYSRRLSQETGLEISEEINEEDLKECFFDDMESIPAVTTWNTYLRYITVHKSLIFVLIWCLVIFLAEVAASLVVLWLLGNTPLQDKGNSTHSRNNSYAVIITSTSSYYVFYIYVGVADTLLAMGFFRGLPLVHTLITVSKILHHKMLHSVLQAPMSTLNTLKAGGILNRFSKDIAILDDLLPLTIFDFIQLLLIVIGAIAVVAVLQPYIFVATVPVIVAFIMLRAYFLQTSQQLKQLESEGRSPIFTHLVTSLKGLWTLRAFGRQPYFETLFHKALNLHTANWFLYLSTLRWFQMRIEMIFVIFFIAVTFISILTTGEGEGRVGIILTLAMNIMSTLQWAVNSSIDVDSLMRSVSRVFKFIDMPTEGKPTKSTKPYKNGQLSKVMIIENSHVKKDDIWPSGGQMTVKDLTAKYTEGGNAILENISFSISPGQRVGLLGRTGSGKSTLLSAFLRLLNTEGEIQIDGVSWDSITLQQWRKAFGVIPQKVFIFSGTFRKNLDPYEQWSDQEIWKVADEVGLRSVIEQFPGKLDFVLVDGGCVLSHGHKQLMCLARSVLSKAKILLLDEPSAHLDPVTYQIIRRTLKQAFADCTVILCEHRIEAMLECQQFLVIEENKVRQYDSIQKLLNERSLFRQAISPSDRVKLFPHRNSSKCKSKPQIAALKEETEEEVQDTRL

| SMILES | % Activity at 3 μM with co-corrector (Ieq) (CFTR ΔF508 [1]) [%] | % Activity at 10 μM (Ieq*) (CFTR ΔF508 [1]) [%] | further results |
| --- | --- | --- | --- |
| CC(C)c1nn(-c2cccc(N3CCCC3)c2)c2nc(C(=O)O)cc(-c3ccc(N4CCC(C#N)CC4)nc3)c12 [compound 222, 4-[6-(4-cyanopiperidin-1-yl)pyridin-3-yl]-3-(propan-2-yl)-1-[3-(pyrrolidin-1-yl)phenyl]-1H-pyrazolo[3,4-b]pyridine-6-carboxylic acid] | 221.3 |  |  |
| N#CC1CCN(c2ccc(-c3cc(C(=O)O)nc4c3c(C3CCC3)nn4C3CCCCC3)cn2)CC1 [compound 220, 4-[6-(4-cyanopiperidin-1-yl)pyridin-3-yl]-3-cyclobutyl-1-cyclohexyl-1H-pyrazolo[3,4-b]pyridine-6-carboxylic acid] | 122.9 |  | % Activity at 1 μM (Ieq*) (CFTR ΔF508 [2]; 1 μM): 720%; EC50 (CFTR ΔF508 [2]): 120 nM |
| CC(C)c1nn(-c2cccc(N3CCC3)c2)c2nc(C(=O)O)cc(-c3ccc(N4CCOCC4)cc3)c12 [compound 151, 1-[3-(azetidin-1-yl)phenyl]-4-[4-(morpholin-4-yl)phenyl]-3-(propan-2-yl)-1H-pyrazolo[3,4-b]pyridine-6-carboxylic acid] |  | 100.6 |  |
| Cc1cccc(-n2nc(C(C)C)c3c(N4CCC(CO)CC4)cc(C(=O)O)nc32)c1 [compound 213, 4-[4-(hydroxymethyl)piperidin-1-yl]-1-(3-methylphenyl)-3-(propan-2-yl)-1H-pyrazolo[3,4-b]pyridine-6-carboxylic acid] | 199.4 |  | % Activity at 1 μM (Ieq*) (CFTR ΔF508 [2]; 1 μM): 390%; EC50 (CFTR ΔF508 [2]): > 300 nM |
| Cc1nn(-c2ccccc2)c2nc(C(=O)O)cc(N3CCCCC3)c12 [compound 123, 3-methyl-1-phenyl-4-(piperidin-1-yl)-1H-pyrazolo[3,4-b]pyridine-6-carboxylic acid] |  | 100.6 |  |
| CC(C)c1nn(C2CCCCC2)c2nc(C(=O)O)cc(-c3ccc(N(C)C4CCOCC4)nc3)c12 [compound 169, 1-cyclohexyl-4-{6-[methyl(oxan-4-yl)amino]pyridin-3-yl}-3-(propan-2-yl)-1H-pyrazolo[3,4-b]pyridine-6-carboxylic acid] | 279.1 |  |  |
| CC(C)c1nn(-c2cccc(N3CCOCC3)c2)c2nc(C(=O)O)cc(-c3ccc(N(C)C)nc3)c12 [compound 89, 4-[6-(dimethylamino)pyridin-3-yl]-1-[3-(morpholin-4-yl)phenyl]-3-(propan-2-yl)-1H-pyrazolo[3,4-b]pyridine-6-carboxylic acid] |  | 147.6 |  |
| O=C(O)c1cc(N2CCC(N3CCN(C4CC4)CC3)CC2)c2c(C3CCC3)nn(-c3ccc(F)cc3)c2n1 [compound 886, 3-cyclobutyl-4-[4-(4-cyclopropylpiperazin-1-yl)piperidin-1-yl]-1-(4-fluorophenyl)-1H-pyrazolo[3,4-b]pyridine-6-carboxylic acid] |  |  | % Activity at 1 μM (AUC**) (CFTR ΔF508 [2]; 1 μM, AUC = full area under the curve upon forskolin stimulation): 282.5409% |
